Source: patent US8802597B2, “Herbicidal pyrimidines” (E I du Pont de Nemours and Company, priority 2003, dated 2014)

Experiments:
Format in all cases: in vivo
[1] = test system: common chickweed (Stellaria media); test: Test D pre/postemergence; details: scale 0 to 100 (100 = complete control)
In short: (§1)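 Pre: seeds sown, then treated. Post: plants at 1- to 4-leaf stage (2 to 18 cm) sprayed at the same time. Chemicals formulated in a non-phytotoxic solvent mixture including surfactant. After 15 to 25 days under controlled growth conditions, response rated visually from 0 (no effect) to 100 (complete control).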

[2] = test system: wild mustard (Sinapis arvensis); test: Test D pre/postemergence; details: scale 0 to 100 (100 = complete control)
In short: as §1

[3] = test system: kochia (Kochia scoparia); test: Test D pre/postemergence; details: scale 0 to 100 (100 = complete control)
In short: as §1

[4] = test system: lambsquarters (Chenopodium album); test: Test D pre/postemergence; details: scale 0 to 100 (100 = complete control)
In short: as §1

[5] = test system: wild buckwheat (Polygonum convolvulus); test: Test D pre/postemergence; details: scale 0 to 100 (100 = complete control)
In short: as §1

[6] = test system: pigweed (Amaranthus retroflexus); test: Test D pre/postemergence; details: scale 0 to 100 (100 = complete control)
In short: as §1

[7] = test system: wheat (Triticum aestivum); test: Test D pre/postemergence; details: scale 0 to 100 (100 = complete control)
In short: as §1

[8] = test system: catchweed bedstraw (galium; Galium aparine); test: Test D pre/postemergence; details: scale 0 to 100 (100 = complete control)
In short: as §1

[9] = test system: Russian thistle (Salsola kali); test: Test D pre/postemergence; details: scale 0 to 100 (100 = complete control)
In short: as §1

[10] = test system: winter barley (Hordeum vulgare); test: Test C postemergence; details: for Plant response rating, Barley: scale 0 to 100
In short: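 We sprayed seeded pots preemergence and 2–18 cm seedlings postemergence with test chemicals in a non-phytotoxic solvent mixture including surfactant. Greenhouse plants were visually compared with untreated controls at 12 to 14 days and scored 0 (no effect) to 100 (complete control).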

CCOC(=O)c1nc(C2CC2)nc(N)c1Cl [Compound 4, ethyl 6-amino-5-chloro-2-cyclopropyl-4-pyrimidinecarboxylate]
Plant response rating, Chickweed ([1]; Postemergence, 16 g ai/ha): 65 | Plant response rating, Chickweed ([1]; Postemergence, 31 g ai/ha): 100 | Plant response rating, Chickweed ([1]; Postemergence, 62 g ai/ha): 100 | Plant response rating, Chickweed ([1]; Postemergence, 125 g ai/ha): 100 | Plant response rating, Chickweed ([1]; Preemergence, 16 g ai/ha): 65 | Plant response rating, Chickweed ([1]; Preemergence, 31 g ai/ha): 70 | Plant response rating, Chickweed ([1]; Preemergence, 62 g ai/ha): 85 | Plant response rating, Chickweed ([1]; Preemergence, 125 g ai/ha): 100 | Plant response rating, Mustard, Wild ([2]; Postemergence, 16 g ai/ha): 65 | Plant response rating, Mustard, Wild ([2]; Postemergence, 31 g ai/ha): 65 | Plant response rating, Mustard, Wild ([2]; Postemergence, 62 g ai/ha): 75 | Plant response rating, Mustard, Wild ([2]; Postemergence, 125 g ai/ha): 90 | Plant response rating, Mustard, Wild ([2]; Preemergence, 16 g ai/ha): 65 | Plant response rating, Mustard, Wild ([2]; Preemergence, 31 g ai/ha): 85 | Plant response rating, Mustard, Wild ([2]; Preemergence, 62 g ai/ha): 85 | Plant response rating, Mustard, Wild ([2]; Preemergence, 125 g ai/ha): 85 | Plant response rating, Kochia ([3]; Postemergence, 16 g ai/ha): 85 | Plant response rating, Kochia ([3]; Postemergence, 31 g ai/ha): 100 | Plant response rating, Kochia ([3]; Postemergence, 62 g ai/ha): 100 | Plant response rating, Kochia ([3]; Postemergence, 125 g ai/ha): 100 | Plant response rating, Kochia ([3]; Preemergence, 16 g ai/ha): 85 | Plant response rating, Kochia ([3]; Preemergence, 31 g ai/ha): 100 | Plant response rating, Kochia ([3]; Preemergence, 62 g ai/ha): 100 | Plant response rating, Kochia ([3]; Preemergence, 125 g ai/ha): 100 | Plant response rating, Lambsquarters ([4]; Postemergence, 16 g ai/ha): 95 | Plant response rating, Lambsquarters ([4]; Postemergence, 31 g ai/ha): 100 | Plant response rating, Lambsquarters ([4]; Postemergence, 62 g ai/ha): 100 | Plant response rating, Lambsquarters ([4]; Postemergence, 125 g ai/ha): 100 | Plant response rating, Lambsquarters ([4]; Preemergence, 16 g ai/ha): 70 | Plant response rating, Lambsquarters ([4]; Preemergence, 31 g ai/ha): 80 | Plant response rating, Lambsquarters ([4]; Preemergence, 62 g ai/ha): 100 | Plant response rating, Lambsquarters ([4]; Preemergence, 125 g ai/ha): 100 | Plant response rating, Buckwheat, Wild ([5]; Postemergence, 16 g ai/ha): 80 | Plant response rating, Buckwheat, Wild ([5]; Postemergence, 31 g ai/ha): 85 | Plant response rating, Buckwheat, Wild ([5]; Postemergence, 62 g ai/ha): 100 | Plant response rating, Buckwheat, Wild ([5]; Postemergence, 125 g ai/ha): 100 | Plant response rating, Buckwheat, Wild ([5]; Preemergence, 16 g ai/ha): 60 | Plant response rating, Buckwheat, Wild ([5]; Preemergence, 31 g ai/ha): 80 | Plant response rating, Buckwheat, Wild ([5]; Preemergence, 62 g ai/ha): 100 | Plant response rating, Buckwheat, Wild ([5]; Preemergence, 125 g ai/ha): 100 | Plant response rating, Pigweed ([6]; Postemergence, 16 g ai/ha): 85 | Plant response rating, Pigweed ([6]; Postemergence, 31 g ai/ha): 100 | Plant response rating, Pigweed ([6]; Postemergence, 62 g ai/ha): 100 | Plant response rating, Pigweed ([6]; Postemergence, 125 g ai/ha): 100 | Plant response rating, Pigweed ([6]; Preemergence, 16 g ai/ha): 70 | Plant response rating, Pigweed ([6]; Preemergence, 31 g ai/ha): 90 | Plant response rating, Pigweed ([6]; Preemergence, 62 g ai/ha): 100 | Plant response rating, Pigweed ([6]; Preemergence, 125 g ai/ha): 100 | Plant response rating, Wheat ([7]; Postemergence, 16 g ai/ha): 80 | Plant response rating, Wheat ([7]; Postemergence, 31 g ai/ha): 85 | Plant response rating, Wheat ([7]; Postemergence, 62 g ai/ha): 100 | Plant response rating, Wheat ([7]; Postemergence, 125 g ai/ha): 100 | Plant response rating, Wheat ([7]; Preemergence, 31 g ai/ha): 70 | Plant response rating, Wheat ([7]; Preemergence, 62 g ai/ha): 80 | Plant response rating, Wheat ([7]; Preemergence, 125 g ai/ha): 80 | Plant response rating, Galium ([8]; Postemergence, 16 g ai/ha): 100 | Plant response rating, Galium ([8]; Postemergence, 31 g ai/ha): 100 | Plant response rating, Galium ([8]; Postemergence, 62 g ai/ha): 100 | Plant response rating, Galium ([8]; Postemergence, 125 g ai/ha): 100 | Plant response rating, Galium ([8]; Preemergence, 16 g ai/ha): 90 | Plant response rating, Galium ([8]; Preemergence, 31 g ai/ha): 100 | Plant response rating, Galium ([8]; Preemergence, 62 g ai/ha): 100 | Plant response rating, Galium ([8]; Preemergence, 125 g ai/ha): 100 | Plant response rating, Russian Thistle ([9]; Postemergence, 16 g ai/ha): 80 | Plant response rating, Russian Thistle ([9]; Postemergence, 31 g ai/ha): 90 | Plant response rating, Russian Thistle ([9]; Postemergence, 62 g ai/ha): 100 | Plant response rating, Russian Thistle ([9]; Postemergence, 125 g ai/ha): 100 | Plant response rating, Russian Thistle ([9]; Preemergence, 16 g ai/ha): 90 | Plant response rating, Russian Thistle ([9]; Preemergence, 31 g ai/ha): 100 | Plant response rating, Russian Thistle ([9]; Preemergence, 62 g ai/ha): 100 | Plant response rating, Russian Thistle ([9]; Preemergence, 125 g ai/ha): 100 | Plant response rating, Barley ([10]; 125 g ai/ha): 65 | Plant response rating, Barley ([10]; 250 g ai/ha): 65 | Plant response rating, Barley ([10]; 500 g ai/ha): 65 | plant injury at 62 g/ha ([10]; Hordeum vulgare, post-emergence, 62 g ai/ha, scale 0 to 100 (0 no effect, 100 complete control), read-out: Barley plant response rating): 30%
